Measured values from publication PMC8217170, “Phase Ib dose-escalation study of the hypoxia-modifier Myo-inositol trispyrophosphate in patients with hepatopancreatobiliary tumors” (Nature Communications, 2021).

Assay: Phase Ib dose escalation: safety and tolerability (CTCAE v4.03), MTD
Format: in vivo, human
Parameters: key to Hypercalcemia, CTCAE-Grade / Hypophosphatemia, CTCAE-Grade / Cholestasis, CTCAE-Grade / Nausea, CTCAE-Grade / Hypertension, CTCAE-Grade / Upper respiratory tract infection, CTCAE-Grade / Hyponatremia, CTCAE-Grade / Hypomagnesemia, CTCAE-Grade / Ascites & death due to rapid progression of malignancy, CTCAE-Grade / Hypokalemia, CTCAE-Grade / Pyrexia, CTCAE-Grade / Hyperphosphatemia, CTCAE-Grade / AV Block 1°, CTCAE-Grade / Palpations, CTCAE-Grade: 1 is the mildest form of the specific symptom; 5 is death
Conditions: for Hypercalcemia, CTCAE-Grade: relationship to IMP: Definitively
Text: This first-in-patient investigator-initiated phase Ib dose-escalation study followed a 3 + 3 dose-escalation scheme with a planned maximal inclusion of 48 participants allocated to eight cohorts of increasing doses. Outcomes were safety, tolerability, pharmacokinetics, and preliminary efficacy of ITPP with participants in this exploratory, prospective, open-label and unblinded, unrandomized, single-center investigation being enrolled at the University Hospital Zurich (USZ), Switzerland. Written informed consent was obtained of all participants before study inclusion after a time of consideration of at least 24 h. Written consent included the reporting and publication of individual, anonymized patient data. The study adhered to the principles of the Declaration of Helsinki, current good clinical practice guidelines and all ethical regulations. The study protocol was approved by the responsible independent ethics committee of Zurich (KEK-ZH-Nr. 2014-0374) and the national regulatory authority Swissmedic (2015DR1009) and is provided in the Supplementary Note 1. The study setup was published before inclusion start[55] and the trial first registered at ClinicalTrials.gov (NCT02528526) on 11/11/2014. After 6 sequential reviews requiring minor editorial changes, final registration at ClinicalTrials.gov was obtained on the 08/18/2015. The first patient was included in the study 04/13/2015, with treatment started on the 04/27/2015. 4 patients were included in the trial before final registration at ClinicalTrials.gov (04/13/2015–07/20/2015). The last patient was included on the 06/12/2018, treatment started on the 06/18/2018 and the last treatment administered on 07/06/2018. Data cut-off for the study was the 12/31/2018. The manuscript was written in compliance with ICMJE guidelines.
Primary objectives were (i) assessment of the safety and tolerability of increasing doses of ITPP, and (ii) establishment of the MTD (primary endpoint) according to the dose escalation schema. The primary outcome was measured by collection of adverse effects information according to Common Terminology Criteria for Adverse Events (CTCAE, US National Cancer Institute, version 4.03). Safety objectives and outcomes were identical with the primary endpoint.
The study drug (brand name: OXY111A) was intravenously administered in 9 infusions, each lasting 8 h, over 3 weeks in an outpatient setting at the Phase 1 unit of the USZ Clinical Trials Center. Due to its anionic properties, ITPP acts a potent chelator of calcium. Therefore, administration with CaCl2 (Baxter) at a 1:0.75 molar ratio has been determined to prevent hypocalcaemia. Respective doses were calculated based on body surface area (DuBois/DuBois formula). Cohort 1 started at weekly doses of 5600 mg/m^2 weekly, equal to the maximal weekly dose tested in healthy volunteers (unpublished data from Normoxys®). Dose escalation was performed according to the predefined scheme (Fig. 1a, Supplementary Note 1: page 6) up to a maximum weekly dose of 43,700 mg/m^2. During infusion days, participants had continuous monitoring of vital signs and daily 12-electrode electrocardiograms. Electrolytes measurements and venous blood gas analyses were performed three-hourly, while complete blood count, coagulation and routine kidney/liver parameters were assessed twice daily.
Severity of encountered AE was assessed following the CTCAE guidelines. Serious AE were defined as events being life-threatening, necessitating hospitalization, resulting in death or birth defects. DLT was defined as any AE ≥ grade 3 and sTET as any grade 2 AE considered to be definitely, probably or possibly related to ITPP. […] MTD was defined as the dose preceding the level at which 1 patient experienced a DLT or ≥3 patients experienced a sTET (Supplementary Note 1: page 6). The window for DLT/sTET/MTD assessment was from first dose of ITPP until first dose of chemotherapy or 10d following the last ITPP infusion. […]

[1] = cohort 1, SAE, relationship to IMP: Unrelated

O=P1(O)OC2C3OP(=O)(O)OP(=O)(O)OC3C3OP(=O)(O)OP(=O)(O)OC3C2OP(=O)(O)O1 (centres unmarked) [ITPP, Myo-inositol trispyrophosphate]
Number of treatment-related toxicities (TET, at least possibly related to ITPP) (28 patients, all cohorts): 32
Hypomagnesemia, patients (all CTCAE grade I): 5/28
Hypophosphatemia, patients (all CTCAE grade I): 4/28
Hypercalcemia of free ionized calcium, share of patients (all cohorts): 67.9 % of patients
Hypercalcemia, share of ITPP-related AE (all cohorts): 59.4%
Hypomagnesemia/-phosphatemia, share of ITPP-related AE (all cohorts): 28.1%
Number of AE unlikely to be ITPP-induced (all cohorts): 24
Number of serious adverse events (SAE) (all cohorts): 7
Share of AE at least possibly related to ITPP (all cohorts): 57%
AV Block 1° (AE, not ITPP-related) (all cohorts, n = 28, total (%)): Total: 1 (3.6%)
Acute kidney injury grade 3 (AE, not ITPP-related) (all cohorts, n = 28, total (%)): Total: 1 (3.6%)
Ascites due to oncological progress (AE, not ITPP-related) (all cohorts, n = 28, total (%)): Total: 3 (10.7%)
C. difficile enteritis (AE, not ITPP-related) (all cohorts, n = 28, total (%)): Total: 1 (3.6%)
Cholestasis (AE, not ITPP-related) (all cohorts, n = 28, total (%)): Total: 1 (3.6%)
Fatigue (AE, not ITPP-related) (all cohorts, n = 28, total (%)): Total: 1 (3.6%)
Hypercalcemia (TET) (all cohorts, n = 28, total (%)): 19 (67.9%)
Hyperphosphatemia (TET) (all cohorts, n = 28, total (%)): Total: 1 (3.6%)
Hypertension (TET) (all cohorts, n = 28, total (%)): Total: 3(10.7%)
Hypokalemia (AE, not ITPP-related) (all cohorts, n = 28, total (%)): Total: 2 (7.1%)
Hypomagnesemia (TET) (all cohorts, n = 28, total (%)): Total: 5 (17.9%)
Hyponatremia (AE, not ITPP-related) (all cohorts, n = 28, total (%)): Total: 3 (10.7%)
Hypophosphatemia (TET) (all cohorts, n = 28, total (%)): Total: 4 (14.3%)
Icterus due to malignant obstruction (AE, not ITPP-related) (all cohorts, n = 28, total (%)): Total: 1 (3.6%)
Lower gastrointestinal bleeding (AE, not ITPP-related) (all cohorts, n = 28, total (%)): Total: 1 (3.6%)
Nausea & vomiting due to malignant infiltration of stomach (AE, not ITPP-related) (all cohorts, n = 28, total (%)): Total: 1 (3.6%)
Nausea (AE, not ITPP-related) (all cohorts, n = 28, total (%)): Total: 1 (3.6%)
Neutropenia (AE, not ITPP-related) (all cohorts, n = 28, total (%)): Total: 1 (3.6%)
Palpitations (AE, not ITPP-related) (all cohorts, n = 28, total (%)): Total: 1 (3.6%)
Pyrexia (AE, not ITPP-related) (all cohorts, n = 28, total (%)): Total: 2 (7.1%)
Upper respiratory tract infection (AE, not ITPP-related) (all cohorts, n = 28, total (%)): Total: 3 (10.7%)
Hyperphosphatemia, patients (asymptomatic, grade I): One
AV Block 1° (AE, not ITPP-related) (cohort 1, 1866 mg/m^2): 0
Acute kidney injury grade 3 (AE, not ITPP-related) (cohort 1, 1866 mg/m^2): 0
C. difficile enteritis (AE, not ITPP-related) (cohort 1, 1866 mg/m^2): 0
Cholestasis (AE, not ITPP-related) (cohort 1, 1866 mg/m^2): 0
Fatigue (AE, not ITPP-related) (cohort 1, 1866 mg/m^2): 0
Hypercalcemia (TET) (cohort 1, 1866 mg/m^2): 0
Hyperphosphatemia (TET) (cohort 1, 1866 mg/m^2): 0
Hypertension (TET) (cohort 1, 1866 mg/m^2): 0
Hypokalemia (AE, not ITPP-related) (cohort 1, 1866 mg/m^2): 0
Hypomagnesemia (TET) (cohort 1, 1866 mg/m^2): 0
Hyponatremia (AE, not ITPP-related) (cohort 1, 1866 mg/m^2): 0
Hypophosphatemia (TET) (cohort 1, 1866 mg/m^2): 0
Icterus due to malignant obstruction (AE, not ITPP-related) (cohort 1, 1866 mg/m^2): 0
Nausea & vomiting due to malignant infiltration of stomach (AE, not ITPP-related) (cohort 1, 1866 mg/m^2): 0
Nausea (AE, not ITPP-related) (cohort 1, 1866 mg/m^2): 0
Neutropenia (AE, not ITPP-related) (cohort 1, 1866 mg/m^2): 0
Palpitations (AE, not ITPP-related) (cohort 1, 1866 mg/m^2): 0
Upper respiratory tract infection (AE, not ITPP-related) (cohort 1, 1866 mg/m^2): 0
Pyrexia, CTCAE-Grade (cohort 1, AE, relationship to IMP: Unrelated): 1
Ascites & death due to rapid progression of malignancy, CTCAE-Grade [1]: 5
Lower gastrointestinal bleeding, CTCAE-Grade [1]: 2
AV Block 1° (AE, not ITPP-related) (cohort 2, 3732 mg/m^2): 0
Acute kidney injury grade 3 (AE, not ITPP-related) (cohort 2, 3732 mg/m^2): 0
Ascites due to oncological progress (AE, not ITPP-related) (cohort 2, 3732 mg/m^2): 0
C. difficile enteritis (AE, not ITPP-related) (cohort 2, 3732 mg/m^2): 0
Cholestasis (AE, not ITPP-related) (cohort 2, 3732 mg/m^2): 0
Fatigue (AE, not ITPP-related) (cohort 2, 3732 mg/m^2): 0
Hyperphosphatemia (TET) (cohort 2, 3732 mg/m^2): 0
Hypertension (TET) (cohort 2, 3732 mg/m^2): 0
Hypokalemia (AE, not ITPP-related) (cohort 2, 3732 mg/m^2): 0
Hyponatremia (AE, not ITPP-related) (cohort 2, 3732 mg/m^2): 0
Hypophosphatemia (TET) (cohort 2, 3732 mg/m^2): 0
Icterus due to malignant obstruction (AE, not ITPP-related) (cohort 2, 3732 mg/m^2): 0
Lower gastrointestinal bleeding (AE, not ITPP-related) (cohort 2, 3732 mg/m^2): 0
Nausea (AE, not ITPP-related) (cohort 2, 3732 mg/m^2): 0
Neutropenia (AE, not ITPP-related) (cohort 2, 3732 mg/m^2): 0
Palpitations (AE, not ITPP-related) (cohort 2, 3732 mg/m^2): 0
Pyrexia (AE, not ITPP-related) (cohort 2, 3732 mg/m^2): 0
Upper respiratory tract infection (AE, not ITPP-related) (cohort 2, 3732 mg/m^2): 0
Hypercalcemia, CTCAE-Grade (cohort 2, AE): 1
Hypomagnesemia, CTCAE-Grade (cohort 2, AE, relationship to IMP: Probably): 1
Nausea & Vomiting necessitating hospitalisation, CTCAE-Grade (cohort 2, SAE, relationship to IMP: Unrelated): 2
AV Block 1° (AE, not ITPP-related) (cohort 3, 5600 mg/m^2): 0
Acute kidney injury grade 3 (AE, not ITPP-related) (cohort 3, 5600 mg/m^2): 0
Ascites due to oncological progress (AE, not ITPP-related) (cohort 3, 5600 mg/m^2): 0
Fatigue (AE, not ITPP-related) (cohort 3, 5600 mg/m^2): 0
Hyperphosphatemia (TET) (cohort 3, 5600 mg/m^2): 0
Hypertension (TET) (cohort 3, 5600 mg/m^2): 0
Hypokalemia (AE, not ITPP-related) (cohort 3, 5600 mg/m^2): 0
Hypomagnesemia (TET) (cohort 3, 5600 mg/m^2): 0
Hyponatremia (AE, not ITPP-related) (cohort 3, 5600 mg/m^2): 0
Icterus due to malignant obstruction (AE, not ITPP-related) (cohort 3, 5600 mg/m^2): 0
Lower gastrointestinal bleeding (AE, not ITPP-related) (cohort 3, 5600 mg/m^2): 0
Nausea & vomiting due to malignant infiltration of stomach (AE, not ITPP-related) (cohort 3, 5600 mg/m^2): 0
Nausea (AE, not ITPP-related) (cohort 3, 5600 mg/m^2): 0
Neutropenia (AE, not ITPP-related) (cohort 3, 5600 mg/m^2): 0
Pyrexia (AE, not ITPP-related) (cohort 3, 5600 mg/m^2): 0
Upper respiratory tract infection (AE, not ITPP-related) (cohort 3, 5600 mg/m^2): 0
Hypercalcemia, CTCAE-Grade (cohort 3, AE): 1
Hypophosphatemia, CTCAE-Grade (cohort 3, AE, relationship to IMP: Probably): 1
Palpations, CTCAE-Grade (cohort 3, AE, relationship to IMP: Unrelated): 1
Cholestasis, CTCAE-Grade (cohort 3, SAE, relationship to IMP: Unlikely): 1
C. difficile enteritis, CTCAE-Grade (cohort 3, SAE, relationship to IMP: Unrelated): 3
AV Block 1° (AE, not ITPP-related) (cohort 4, 7000 mg/m^2): 0
C. difficile enteritis (AE, not ITPP-related) (cohort 4, 7000 mg/m^2): 0
Cholestasis (AE, not ITPP-related) (cohort 4, 7000 mg/m^2): 0
Hyperphosphatemia (TET) (cohort 4, 7000 mg/m^2): 0
Hypokalemia (AE, not ITPP-related) (cohort 4, 7000 mg/m^2): 0
Hypomagnesemia (TET) (cohort 4, 7000 mg/m^2): 0
Hyponatremia (AE, not ITPP-related) (cohort 4, 7000 mg/m^2): 0
